Results on 21 molecules are retold here after patent US20250092065A1, “2-(INDAZOL-5-YL)-6-(PIPERIDIN-4-YL)-1,7-NAPHTHYRIDINE DERIVATIVES AND RELATED COMPOUNDS AS MODULATORS FOR SPLICING NUCLEIC ACIDS AND FOR THE TREATMENT OF PROLIFERATIVE DISEASES” (REMIX THERAPEUTICS INC., priority 2022, published 2025).

Where a name gives a salt, the structure may show the parent alone. Where only a bound is given, the exact number is not on record here.

As usually defined, the IC50 is the midpoint of a concentration-inhibition curve.

The assay deals with Target C. In words: RT-qPCR canonical junction panel assay, Target C mRNA. Type of assay: cell-based. The following applies: Table 4, read-out: Target C IC50 (decrease in CJ mRNA levels). The gist of the method:
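A673 or K562 cells treated with compound; CJ mRNA quantified by junction-spanning RT-qPCR probe after cDNA synthesis, normalised to GAPDH, GUSB or PPIA and DMSO (2^−ΔΔCt), scaled to set ΔCt assay window; IC50 from 4-parameter fit of CJ decrease.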
(In qPCR the cycle at which signal appears reflects the starting amount.)
Regarding `C[C@H]1CN(c2cc(F)c3nc(-c4cc(F)c5nn(C)cc5c4)ccc3c2)C[C@H](C)N1` (single isomer, unassigned) [Compound 760], the 50% inhibitory concentration (IC50) lay within 100 to 1000 nM.
In the case of `C[C@H]1CN(c2cc(F)c3nc(-c4cc5cn(C)nc5cc4O)ccc3c2)C[C@H](C)N1` (single isomer, unassigned) [Compound 770] it was 100 to 1000 nM; in that of `Cc1cn2nc(-c3ccc4cc(N5C[C@H](C)N[C@@H](C)C5)cc(F)c4n3)cc(C)c2n1` (single isomer, unassigned) [Compound 799], 1000 to 10000 nM.
The value for `Cc1c(O)c(-c2ccc3cc(N4C[C@H](C)N[C@@H](C)C4)cc(F)c3n2)cc2cn(C)nc12` (single isomer, unassigned) [Compound 800, 2,2,2-trifluoroacetate] was 100 to 1000 nM; that for `Cc1nc(-c2cc3cn(C)nc3cc2O)nc2ccc(N3C[C@H](C)N[C@@H](C)C3)cc12` (single isomer, unassigned) [Compound 806] was greater than 10000 nM.
For the molecule `Cc1nc(-c2cc3cn(C)nc3c(C)c2O)nc2ccc(N3C[C@H](C)N[C@@H](C)C3)cc12` (single isomer, unassigned) [Compound 807], the IC50 was greater than 10000 nM.
On to `Cn1cc2cc(-c3cc4ccc(C5CCNCC5)nc4cn3)c(O)cc2n1` [Compound 104], for which the IC50 lay in the range of 1000 to 10000 nM.
Regarding `Cn1cc2cc(-c3ccc4nc(N5CC[C@H](NC6CCC6)C5)ccc4n3)c(O)cc2n1` [Compound 156], the IC50 was in the range of 100 to 1000 nM.
The value for `CC(C)N[C@H]1CCN(c2ccc3nc(-c4cc5cn(C)nc5cc4O)ccc3n2)C1` [Compound 171] was 100 to 1000 nM; that for `Cc1cn2nc(-c3ccc4nc(N5CCC(NC(C)(C)C)C5)ccc4n3)cc(C)c2n1` (stereo not drawn) [Compound 186] was less than 100 nM.
On to `Cn1cc2cc(-c3ccc4nc(N5CC[C@H](NCC6CC6)C5)ccc4n3)c(O)cc2n1` [Compound 194], for which the half-maximal inhibitory concentration (IC50) is 100 to 1000 nM.
In the case of `CN(C)C1CCN(c2ccc3nc(-c4cc5cn(C)nc5c(F)c4O)ncc3c2)CC1` [Compound 757, 5-{6-[4-(dimethylamino)piperidin-1-yl]quinazolin-2-yl}-7-fluoro-2-methylindazol-6-ol] it was 1000 to 10000 nM; in that of `C[C@@H]1CN(c2cc(F)c3nc(-c4cc(F)c5nn(C)cc5c4)ccc3c2)C[C@H](C)N1` [Compound 758, 6-[(3R,5S)-3,5-dimethylpiperazin-1-yl]-8-fluoro-2-(7-fluoro-2-methylindazol-5-yl)quinoline], 1000 to 10000 nM.
The value for `C[C@@H]1CN(c2cc(F)c3nc(-c4cc5cn(C)nc5c(F)c4O)ccc3c2)C[C@H](C)N1` [Compound 763, 5-{6-[(3R,5S)-3,5-dimethylpiperazin-1-yl]-8-fluoroquinolin-2-yl}-7-fluoro-2-methylindazol-6-ol hydrochloride] was 1000 to 10000 nM.
For `C[C@@H]1CN(c2cc(F)c3nc(-c4cc5cn(C)nc5cc4O)ccc3c2)C[C@H](C)N1` [Compound 768, 5-{6-[(3R,5S)-3,5-dimethylpiperazin-1-yl]-8-fluoroquinolin-2-yl}-2-methylindazol-6-ol hydrochloride], the half-inhibitory concentration (IC50) lay within 1000 to 10000 nM.
In the case of `Cc1cn2cc(-c3ncc4cc(N5C[C@@H](C)N[C@@H](C)C5)ccc4n3)cc(F)c2n1` [Compound 773, 6-[(3R,5S)-3,5-dimethylpiperazin-1-yl]-2-{8-fluoro-2-methylimidazo[1,2-a]pyridin-6-yl}quinazoline] it was 1000 to 10000 nM.
The value for `Cc1cn2cc(-c3nc(C(=O)NC4CCC4)c4cc(N5C[C@@H](C)N[C@@H](C)C5)ccc4n3)cc(F)c2n1` [Compound 779, N-cyclobutyl-6-[(3R,5S)-3,5-dimethylpiperazin-1-yl]-2-{8-fluoro-2-methylimidazo[1,2-a]pyridin-6-yl}quinazoline-4-carboxamide] was 1000 to 10000 nM; that for `Cc1c(O)c(-c2nc(C(N)=O)c3cc(N4C[C@H](C)N[C@@H](C)C4)ccc3n2)cc2cn(C)nc12` [Compound 796] was greater than 10000 nM; that for `C[C@H]1CN(c2ccc3nc(-c4cc5cn(C)nc5cc4O)nc(C(N)=O)c3c2)C[C@H](C)N1` [Compound 797] was greater than 10000 nM.
With `Cc1cn2cc(-c3ncc4cc(N5C[C@H](C)N[C@@H](C)C5)ccc4n3)cc(F)c2n1` [Compound 803, 6-[(3S,5S)-3,5-dimethylpiperazin-1-yl]-2-{8-fluoro-2-methylimidazo[1,2-a]pyridin-6-yl}quinazoline], the IC50 lay within 100 to 1000 nM.
In the case of `Cc1c(O)c(-c2ccc3cc(N4CCNC5(CC5)C4)cc(F)c3n2)cc2cn(C)nc12` [Compound 805, 5-(6-{4,7-diazaspiro[2.5]octan-7-yl}-8-fluoroquinolin-2-yl)-2,7-dimethylindazol-6-ol] it was 100 to 1000 nM.
